The text below walks through data of patent US12366579B2, “Sulfur-heterocycle exchange chemistry and uses thereof” (University of Virginia Patent Foundation, priority 2019, dated 2025).

A value given as a limit tells only on which side of the number the result lay.

Assay [1] deals with HEK293T soluble proteomes. Description: LC-MS chemical proteomics of probe-modified sites in cell proteomes. It is filed as binding, human. The note with it: for unique-modified tyrosine sites among 1,2,4-SuTEx probes: FIG. 4D; for tyrosine specificity, Y/K ratio of modified sites: LC-MS chemical proteomics. The protocol:
Proteomes were diluted to 2.3 mg/mL in PBS and sample aliquots (432 μL) were treated with sulfonyl-triazole or -fluoride probes at the indicated concentrations (5 μL, 100× stock in DMSO), mixed gently and incubated for 1 h at room temperature. Probe-modified proteomes were subjected to CuAAC conjugation to desthiobiotin-PEG3-azide (10 μL of 10 mM stock in DMSO; final concentration of 200 μM) using TCEP (10 μL of fresh 50 mM stock in water; 1 mM final concentration), TBTA ligand (33 μL of a 1.7 mM 4:1 t-butanol/DMSO stock, 100 μM final concentration), and CuSO4 (10 μL of 50 mM stock, 1 mM final concentration). Samples were mixed by vortexing and then incubated for 1 h at room temperature. Excess reagents were removed by chloroform-methanol extraction as previously described^51. Protein pellets were re-suspended in 500 μL of 6M urea/25 mM ammonium bicarbonate followed by DTT reduction and IAA alkylation as previously described^5. Excess reagents were removed by chloroform/methanol extraction as described above, and the protein pellet was re-suspended in 500 μL of 25 mM ammonium bicarbonate and then digested to peptides using trypsin/Lys-C (7.5 μg in 15 μL of ammonium bicarbonate, sequencing grade from Promega, Madison, Wisconsin, United States of America) was added to the mixture and incubated for 3 hrs at 37° C. Probe-modified peptides were enriched by avidin affinity chromatography, eluted, and prepared for LC-MS analysis as previously described^51.
A top 10 data-dependent acquisition MS method was used.
Sulfonyl-probe modifications of tyrosine, lysine, and other amino acids were included as a variable (common) modification of +635.27374 Da. […] A Byonic score of 300 was applied for a more inclusive initial evaluation of the search results and thereby consider more possible probe-modified sites. MS1 and MS2 spectra corresponding to the highest-scoring tyrosine- and lysine (internal or non-C terminal)-modified sequences (˜50-100 peptides) were manually verified. […] Distinct peptides containing probe-modified amino acid residues (termed sites) were determined by identifying all unique razor protein and site combinations across all of the proteomes tested.
To compare amino acid residues modified by sulfonyl probes, protein and peptide identifications were accomplished as described above with variable (common) modification of +635.27374 Da on the following amino acid residues: cysteine, aspartic acid, glutamic acid, histidine, lysine, methionine, asparagine, glutamine, arginine, serine, threonine, tryptophan, and tyrosine. For these amino acid comparisons, carbamidomethylation (+57.021464 Da) of cysteines was searched as a variable/common modification to allow for the potential of probe modification on cysteines. Comparisons of probe-modified sites across all probes and cell lines tested were performed using the R package ggplot2 (online at tidyverse.org). Venn diagrams for comparisons were generated using the VennDiagram R package^52.
Proteomes were digested with trypsin protease and desthiobiotin-modified peptides enriched by avidin affinity chromatography, released, and analyzed by high-resolution liquid chromatography-mass spectrometry (LC-MS). Probe-modified peptide-spectrum matches (PSMs) that met a quality control confidence criteria of ≥300 Byonic score^31 and ≤5 ppm mass accuracy were selected for further manual evaluation.

A short description of assay [2]: HPLC assay for solution reactivity of sulfonyl triazole fragments with p-cresol. It is filed as physicochemical. Particulars: for time to completion of reaction with p-cresol: TMG 1.1 equivalents, on ice; for solution reactivity with p-cresol: HPLC assay, TMG base. The protocol:
HPLC Assay for Profiling Solution Reactivity and Stability of Sulfonyl Triazole Fragments
The following reagents were prepared and stored on ice prior to use. 0.1 M solution of caffeine in acetonitrile, 1.0 M solution of n-butylamine, p-cresol, tetramethylguanidine […], 1 M HOAc in ACN and 10 mM solution of SuTEx fragment in DMF-ACN mixture (10:90, v/v). 500 μL of fragment solution was transferred to a dram vial on ice. To the mixture, 5.5 μL of TMG and 5.5 μL of p-cresol or n-butylamine was added and solutions were stirred on ice for 6 h. To monitor reactivity, 50 μL aliquots were removed at indicated time points and quenched with 10 μL of a 1:1 mixture of caffeine and HOAc. Samples were injected (1 μL) and analyzed by reverse-phase HPLC on a Shimadzu 1100 Series spectrometer (Shimadzu, Kyoto, Japan) with UV detection at 254 nm. Reaction progress was evaluated by monitoring consumption of starting material (SuTEx fragment) normalized to caffeine standard. Chromatographic separation was performed using a Phenomenex Kinetex C18 column (2.6 μm, 50×4.6 mm) (Phenomenex, Torrance, California, United States of America). Mobile phases A and B were composed of H2O+0.1% HOAc and ACN+0.1% HOAc, respectively. Samples were analyzed using the following analytical conditions: using a flow rate of 0.8 ml min^−1, the gradient was as follows: 0-0.5 min, 15% B; 0.5-6.5 min 85% B; 6.5-7 min 100% B: 7-8.5 min 100% B; 8.5-9 min 15% B; 9-9.8 min 15% B.

Another assay addresses T1, human DPP3 (hDPP3) (Homo sapiens, UniProt Q9NY33).
T1 construct: FLAG (C); host or cells: HEK293T, transient transfection; soluble proteome used unpurified
T1 sequence (Q9NY33 1-737): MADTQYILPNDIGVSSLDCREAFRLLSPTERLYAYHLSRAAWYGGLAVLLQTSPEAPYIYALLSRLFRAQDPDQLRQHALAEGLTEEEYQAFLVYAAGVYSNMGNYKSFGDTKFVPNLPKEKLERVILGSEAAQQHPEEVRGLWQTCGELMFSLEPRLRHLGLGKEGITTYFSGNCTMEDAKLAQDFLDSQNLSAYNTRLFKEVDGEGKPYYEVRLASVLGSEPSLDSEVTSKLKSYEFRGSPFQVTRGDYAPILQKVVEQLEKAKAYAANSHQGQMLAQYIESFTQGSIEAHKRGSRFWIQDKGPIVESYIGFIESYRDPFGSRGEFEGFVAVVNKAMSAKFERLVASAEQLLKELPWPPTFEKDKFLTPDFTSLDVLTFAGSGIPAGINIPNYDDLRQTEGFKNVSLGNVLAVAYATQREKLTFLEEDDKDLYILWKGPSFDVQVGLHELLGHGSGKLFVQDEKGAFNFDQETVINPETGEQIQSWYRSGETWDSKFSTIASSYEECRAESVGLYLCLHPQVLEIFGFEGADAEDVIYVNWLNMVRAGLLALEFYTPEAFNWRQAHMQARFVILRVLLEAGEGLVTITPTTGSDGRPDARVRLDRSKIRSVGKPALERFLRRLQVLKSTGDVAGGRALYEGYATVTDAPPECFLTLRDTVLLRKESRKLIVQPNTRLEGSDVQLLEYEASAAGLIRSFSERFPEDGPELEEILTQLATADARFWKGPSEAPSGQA
The experiment in a line: Gel-based competitive chemical proteomic screen with HHS-482, recombinant hDPP3-HEK293T soluble proteomes. Particulars: 50 μM fragment, 37° C., 30 min. It is filed as binding. The protocol:
Gel-Based Chemical Proteomic Assay
Cell pellets were lysed in PBS and fractionated (100,000×g, 45 min, 4° C.) to generate soluble and membrane fractions. Protein concentrations were determined using Bio-Rad DC protein assay (Bio-Rad Laboratories, Inc., Hercules, California, United States of America), and adjusted to 1 mgml^−1 in PBS. Proteome samples (49 μl aliquots) were treated with DMSO vehicle or indicated concentration of SuTEx fragment (1 μL, 50× stock in DMSO) for 30 min at 37° C. Samples were then treated with HHS-482 probe (1 μL, 2.5 mM stock in DMSO) for 30 min at 37° C. Probe labeled samples were conjugated to rhodamine-azide (1 μL, 1.25 mM stock; final concentration of 25 μM) by copper-catalyzed azide-alkyne cycloadditions (CuAAC) for 1 h at room temperature followed by SDS-PAGE and in-gel fluorescence scanning as previously described^57.

The next assay relates to DM93 soluble proteomes. Description: Proteome-wide competitive chemical proteomics of SuTEx fragments vs HHS-482. Particulars: fragment 50 μM, 30 min, 37° C. It is filed as binding, human. The protocol: Heavy and light proteomes (432 μl of each) were diluted to 2.3 mg ml^−1 in PBS and sample aliquots (432 μl) were treated with SuTEx fragment at the indicated concentrations (5 μl, 100× stock in DMSO), mixed gently and incubated for 30 min at 37° C. Samples were then treated with HHS-482 (5 μL, 5 mM stock in DMSO) for 30 min at 37° C. Probe-modified proteomes were conjugated to desthiobiotin-PEG3-azide followed by enrichment of probe-modified peptides for nano-electrospray ionization-LC-MS/MS analyses as previously described^57.
The chemical proteomic method for functional tyrosine profiling^72 was tailored to investigate AG/LG effects on SuTEx fragment reactivity in complex proteomes. In brief, isotopically light and heavy soluble proteomes from DM93 melanoma cells cultured by stable isotopic labeling by amino acids in cell culture (SILAC^80) media were used for quantitative liquid chromatography-mass spectrometry (LC-MS) studies. Light and heavy DM93 proteomes were treated with dimethyl sulfoxide (DMSO) vehicle or SuTEx fragment (50 μM, 30 min, 37° C.), respectively, followed by labeling with the tyrosine-reactive probe HHS-482 described hereinabove (50 μM, 30 min, 37° C.) and copper-catalyzed azide-alkyne cycloaddition (CuAAC) conjugation of a desthiobiotin-azide enrichment tag. Proteomes were digested with trypsin protease, HHS-482-modified peptides enriched by avidin chromatography and analyzed by high-resolution LC-MS/MS and bioinformatics as described hereinabove.
To evaluate substituent effects on proteome activity, reactivity profiles of each respective SuTEx fragment were compared across >1500 total distinct HHS-482-modified tyrosine sites from >650 detected proteins. Fragments were screened across independent biological replicates (n=2-3) and high-quality tyrosine site annotations were identified by detection in at least a single biological replicate from each fragment dataset, probe-specific enrichment (HHS-482 probe/DMSO SILAC ratio (SR)>5), and quality control confidence criteria of ≥300 Byonic score^31, […] protein false discovery rate (FDR), and ≤5 ppm mass accuracy in order to minimize the potential for false positives^72. SILAC ratios (SR) from competitive studies (Light-DMSO/Heavy-fragment) were used to identify fragment-competed tyrosine residues as sites showing >75% reduction in enrichment by HHS-482 compared with DMSO vehicle control (i.e. liganded tyrosines, SR>4). In total, 305 liganded tyrosines on 213 distinct proteins were identified, corresponding to ˜30% and ˜44% of total quantified tyrosines and proteins, respectively. […]

As to `C#CCNC(=O)c1ccc(S(=O)(=O)n2cnc(-c3ccc(F)cc3)n2)cc1` [HHS-483, 4-((3-(4-Fluorophenyl)-1H-1,2,4-triazol-1-yl)sulfonyl)-N-(prop-2-yn-1-yl)benzamide], the “proteome reactivity and tyrosine specificity compared with HHS-481” value in assay [1] (FIG. 4A) is “comparable reactivity and slightly lowered tyrosine specificity”. In assay [1], the “unique-modified tyrosine sites among 1,2,4-SuTEx probes” value was 433 sites.

Turning to `COc1ccc(-c2ncn(S(=O)(=O)c3cccnc3)n2)cc1` [JWB141, 3-((3-(4-Methoxyphenyl)-1H-1,2,4-triazol-1-yl)sulfonyl)pyridine], the “time to completion of reaction with p-cresol” value in assay [2] is about 30 min.

Turning to `COc1ccc(-c2ncn(S(=O)(=O)c3ccc(OC)cc3)n2)cc1` [JWB136, 3-(4-Methoxyphenyl)-1-((4-methoxyphenyl)sulfonyl)-1H-1,2,4-triazole], the “solution reactivity with p-cresol” value in assay [2] was “incomplete reaction”.

Turning to `COc1ccc(-c2ncn(S(=O)(=O)c3ccc(F)cc3)n2)cc1` [JWB135, 1-((4-Fluorophenyl)sulfonyl)-3-(4-methoxyphenyl)-1H-1,2,4-triazole], the “solution reactivity with p-cresol” value in assay [2] was “attenuated reactivity”.

On to `COc1ccc(-c2ncn(S(=O)(=O)c3ccc(C#N)cc3)n2)cc1` [JWB137, 4-((3-(4-Methoxyphenyl)-1H-1,2,4-triazol-1-yl)sulfonyl)benzonitrile], for which, in assay [2], the “time to completion of reaction with p-cresol” value was about 5 min.

With `C#CCNC(=O)c1ccc(S(=O)(=O)n2cnc(-c3ccc(OC)cc3)n2)cc1` [HHS-482, 4-((3-(4-Methoxyphenyl)-1H-1,2,4-triazol-1-yl)sulfonyl)-N-(prop-2-yn-1-yl)benzamide], in assay [1] (FIG. 4A), the “total number of probe-modified sites (Y and K combined)” value is reported as ~3,000 sites; the “tyrosine specificity, Y/K ratio of modified sites” value is listed as about 5. In addition, in assay [1], the “unique-modified tyrosine sites among 1,2,4-SuTEx probes” value turned out to be 112 sites. Moreover, in assay [1] (high confidence sites), the “fraction of probe-modified residues/peptides assigned to tyrosines” value is recorded as about 75%.

In the case of `C#CCNC(=O)c1ccc(S(=O)(=O)n2cnc(-c3ccccc3)n2)cc1` [HHS-481, 4-((3-Phenyl-1H-1,2,4-triazol-1-yl)sulfonyl)-N-(prop-2-yn-1-yl)benzamide], in assay [1] (FIG. 4A), the “total number of probe-modified sites (Y and K combined)” value is given as ~4,000 sites; the “tyrosine specificity, Y/K ratio of modified sites” value came out at 3.5. Also, in assay [1], the “unique-modified tyrosine sites among 1,2,4-SuTEx probes” value came out at 445 sites.

As for `O=S(=O)(c1ccc(-c2ccccc2)cc1)n1cnc(-c2ccncc2)n1` [JWB202, 4-(1-([1,1′-Biphenyl]-4-ylsulfonyl)-1H-1,2,4-triazol-3-yl)pyridine], at human DPP3 (hDPP3), the “blockade of DPP3 probe (HHS-482) labeling” value is given as about 50%.

Consider `O=S(=O)(c1ccc(F)cc1)n1cnc(-c2ccc(C(F)(F)F)cc2)n1` [JWB150, 1-((4-Fluorophenyl)sulfonyl)-3-(4-(trifluoromethyl)phenyl)-1H-1,2,4-triazole], for which, at human DPP3 (hDPP3) (also substantial proteome cross-reactivity), the “competition against recombinant DPP3” value is reported as “potent competition”. Besides, the “liganded tyrosine frequency (SR>4)” value in the assay on DM93 soluble proteomes is reported as over 25%. The “solution reactivity with p-cresol” value in assay [2] was “comparable reaction”.
